Experiments:
MDA-MB-435 = assay: Antiproliferative activity against human MDA-MB-435 cells after 72 hrs by MTS assay; format: functional, cell-based; conditions: MDA-MB-435, 72 h
HT-29 = assay: Antiproliferative activity against human HT-29 cells after 72 hrs by MTS assay; format: functional, cell-based; conditions: HT-29, 72 h

- IC50 (MDA-MB-435): 0.8 µM
- IC50 (HT-29): 1.5 µM
Compound: CCCCCCC[C@@H]1CC(=O)N[C@@H]([C@@H](C)CC)C(=O)N[C@H]([C@@H](O)C(C)C)C(=O)N[C@@H](CCO)C(=O)N[C@H]([C@@H](O)C(C)C)C(=O)N[C@@H](CCC(N)=O)C(=O)N(C)[C@@H]([C@@H](C)CC)C(=O)N[C@H](CO)C(=O)N[C@@H]([C@@H](C)O)C(=O)N2CCC[C@H]2C(=O)N[C@H](Cc2ccc(O)cc2)C(=O)N[C@@H]([C@@H](C)O)C(=O)N1
